Test results reported in patent US20120308554A1, “VEGF-D/VEGFR2/3-MEDIATED REGULATION OF DENDRITES” (UNIVERSITAT HEIDELBERG, priority 2011, published 2012).

Experiments:
Format in all cases: cell-based, mice
[1] = system: hippocampal cultures; assay: MEA recordings of spontaneous network activity; conditions: infected cultures versus rAAV-shSCR or rAAV-emptymC
Procedure: MEA recordings were done as known in the art. From DIV7 to DIV13, recordings of spontaneous network activity were acquired for 5 min once per day.

[2] = system: VEGFD; assay: Immunoblot analysis of VEGFD expression in hippocampal neurons; conditions: hippocampal neurons infected with rAAV
Text: C: Immunoblot analysis of VEGFD expression in uninfected hippocampal neurons and in hippocampal neurons infected with the indicated rAAVs. Tubulin was used for loading control. Neurons infected with rAAV-emptymC, rAAV-shVEGFD and rAAV-shSCR were detected by DsRed immunostaining (see above).
Mouse monoclonal antibody to tubulin (Sigma); mouse monoclonal NeuN antibody (Chemicon); mouse monoclonal anti-phospho-p38 MAP kinase antibody (BD); rabbit polyclonal antibodies to the HA tag, anti-VEGFD antibodies, anti-VEGFR3 (Santa Cruz); rabbit polyclonal antibody to phosphor-CREB (Upstate-Millipore); rabbit polyclonal antibody to phosphor-CaMKII (Promega); rabbit polyclonal antibodies to phosphor-MSK1, phosphor-ATF2, phosphor-ERK, phosphor-Akt, phosphor-MKK4, phosphor-JNK, phosphor-p70, phosphor-GSKα/β (Cell Signaling). Rabbit polyclonal antibodies to DsRed (Clontech). AlexaFluor 488-, AlexaFluor 594-, and AlexaFluor 633-labled secondary antibodies were from Molecular Probes (Eugene, Oreg., USA).

[3] = system: VEGFD; assay: qRT-PCR analysis of VEGFD expression in hippocampal neurons; conditions: hippocampal neurons infected with rAAV
Procedure: Total RNA was isolated at DIV10 to DIV13 from hippocampal primary neuron cultures or isolated brain tissues with Rneasy Mini Kit (Qiagen, Hilden, Germany) including an optional Dnase I treatment at room temperature for 15 min according to manufacturer's instructions (Qiagen). 1.2 μg of extracted RNA was reverse transcribed into first strand cDNA using High Capacity cDNA Reverse Transcription kit (Applied Biosystems, Foster City, Calif.).
Quantitative reverse transcriptase PCR (qRT-PCR) was done on an ABI7300 thermal cycler using Universal qRT-PCR master mix with TaqMan Gene Expression Assays for the indicated genes (Applied Biosystems). The following TaqMan Gene Expression Assays were used in this study: Gusb (Mm00446953_m1), cFos (Mm00487425_m1), VEGFD (Mm00438965_m1), VEGFC (Mm01202432_m1), VEGF (Mm01281449_m1), VEGFR3 (Mm01292618_m1), beta-actin (Mm00607939_s1), beta-2 microglobulin (Mm00437762_m1), CBP (Mm01342435_m1), p38 MAPK alpha (Mm00442497_m1), p38 MAPK beta (Mm00440955_m1). Expression of target genes was normalized against the expression of Gusb as endogenous control gene. Data were derived from at least 5 independent experiments.

## shVEGFD: shRNA targeting mouse VEGFD mRNA (GGGCTTCAGGAGCGAACAT; SEQ ID NO: 1), expressed from rAAV vector or plasmid with U6 promoter
[1]
  spike frequencies: reduced
[2]
  VEGFD protein expression (immunoblot): blocked VEGFD protein expression
[3]
  VEGFD mRNA levels: reduced VEGFD mRNA levels
